US20120231482A1, “METHOD, KIT OR DIAGNOSTIC FOR THE DETECTION OF REAGENTS WHICH INDUCE ALTERED CONTRACTILITY” (THE JOHNS HOPKINS UNIVERSITY, priority 2009, published 2012)

Legend:
Assay in all cases: Modified biotin switch assay, sites of HNO modification
myosin heavy chain α/β = format: biochemical, rat; conditions: for number of independent observations of peptide: 25 μM NCA or 500 μM AS; for Position of modified Cys: myosin heavy chain (α/β), Table 2
Protocol: (§1) Rat myofibrillar preparations, as described in [7], were obtained from frozen ventricles (Pel Freez Biologicals) minced in 20 volumes/tissue weight of 4° C. relax buffer (SRB (75 mM KCL, 10 mM imidazole pH 7.2, 2 mM MgCl2) plus 4 mM phosphocreatine, 1 mM ATP, 50 mM BDM, 1 mM benzamidine-HCL, 0.1 mM PMSF, 1 μg/ml leupeptin, 1 μg/ml pepstatin, 1% (v/v) Trixon X-100) and adjusted to 10 mM EDTA. Minced preparations were centrifuged for 8 min at 3000xg and the supernant was decanted. Resulting pellets were resuspended in 10 volumes of SRB plus 1% Triton X-100 and subjected to 6 strokes in a Duall tissue homogenizer and centrifuged as above. Pellets were gently resuspended and centrifuged as above twice more in SRB including 1% (v/v) Triton X-100, twice in SRB lacking Triton X-100 and once in K-60 buffer (60 mM KCL, 20 mM MOPS, 2 mM MgCl2 pH 7) before being resuspended in 5 volumes of K-60.
(§2) Detection of HNO modifications by Modified Biotin Switch. HNO modified thiols were detected using a modification to the standard biotin switch protocol. In brief, 100 μg of rat myofibrils/treatment were diluted to 0.5 μg/μl in HEN (250 mM HEPES pH 7.7, 1 mM EDTA and 0.1 mM neocuproine) including 0.1% (w/v) SDS and exposed to a treatment for 10 min at 37° C. which was subsequently removed by acetone precipitation. Remaining free thiols were blocked by addition of 300 μl of HEN including 2.5% (w/v) SDS and 20 mM N-ethylmaleimide (NEM), incubated for 20 min at 50° C. Excess NEM was removed by acetone precipitation. HNO and/or NO modified thiols were reduced using 5 mM DTT or 1 mM ascorbate in 150 μl of HEN including 1% (w/v) SDS and biotinylated with 0.8 mM Biotin-HPDP (Pierce) for one hour at room temperature. Excess biotin-HPDP was removed by acetone precipitation (2 volumes) and resultant pellets were carefully washed with an additional volume of acetone. Biotinylated proteins were resuspended in 1 ml of HEN including 0.1% (w/v) SDS and captured by incubation with 15 μl of washed, packed Ultralink Immobilized Streptavidin (Pierce) for one hour at room temperature. Beads were washed four times in 50 bead volumes of HEN (twice including 0.1% (w/v) SDS, twice including 600 mM NaCl) and twice with EB (20 mM HEPES pH 7.7, 100 mM NaCl, 1 mM EDTA). Captured proteins were eluted with 40 μl of EB containing 100 mM DTT, mixed with 15 μl of 4×LDS sample buffer, boiled, separated by SDS PAGE and silver stained. For MS studies, biotinylated proteins were digested overnight with trypsin (Promega) prior to capture and washed ten additional times with 5 mM ammonium bicarbonate/20% acetonitrile before being eluted in 100 μl of wash buffer including 100 mM DTT as described. Captured peptides were identified using a LTQ linear ion trap tandem mass spectrometer (ThermoFinnigan, Waltham Mass. USA) with data searched against the rat IPI primary sequence database using the sorcerer searching platform (sagen).
(§3) To investigate the modifications that underlie the difference seen in the functional effect of these two compounds we performed an analysis on the myofilament proteins, using a modified biotin-switch method, followed by mass spectrometry for identification (FIG. 3). Following treatment with HNO or control compounds, unmodified cysteines are blocked with NEM before treatment with a reducing agent and labeling the exposed cysteines with a biotin group (FIG. 3A). In this case, 5 mM DTT was used as the reducing agent because it was shown in the physiological studies to reverse the effect of the treatment. […] Tryptic or chymotryptic peptides containing the modified cysteine residues were captured and identified by LC/MS/MS. […] To parse the role of candidate sites of modification between these two effects a comparative proteomics experiment was designed where modifications specific to NCA treatment would be considered candidates for the Ca^2+ effect while sites identified in common between AS and NCA could be candidates for the force effect (FIG. 3C). […]

α actinin = format: biochemical, rat; conditions: for number of independent observations of peptide: Cys 889, tryptic peptide ELPPDQAQYCIKR, 25 μM NCA or 500 μM AS; for Position of modified Cys: α-Actinin, Table 2
Protocol: as §1, §2, §3

myosin heavy chain α = target: T1, myosin heavy chain α (Rattus norvegicus, UniProt P02563); format: biochemical; conditions: for number of independent observations of peptide: Cys 37, 25 μM NCA or 500 μM AS; for Position of modified Cys: myosin heavy chain (α), Table 2
T1 construct: Rat myofibrillar preparations, as described in [7], were obtained from frozen ventricles (Pel Freez Biologicals); tissue Pel Freez Biologicals; host or cells: myofibrils from frozen rat ventricles
T1 sequence (P02563 whole entry): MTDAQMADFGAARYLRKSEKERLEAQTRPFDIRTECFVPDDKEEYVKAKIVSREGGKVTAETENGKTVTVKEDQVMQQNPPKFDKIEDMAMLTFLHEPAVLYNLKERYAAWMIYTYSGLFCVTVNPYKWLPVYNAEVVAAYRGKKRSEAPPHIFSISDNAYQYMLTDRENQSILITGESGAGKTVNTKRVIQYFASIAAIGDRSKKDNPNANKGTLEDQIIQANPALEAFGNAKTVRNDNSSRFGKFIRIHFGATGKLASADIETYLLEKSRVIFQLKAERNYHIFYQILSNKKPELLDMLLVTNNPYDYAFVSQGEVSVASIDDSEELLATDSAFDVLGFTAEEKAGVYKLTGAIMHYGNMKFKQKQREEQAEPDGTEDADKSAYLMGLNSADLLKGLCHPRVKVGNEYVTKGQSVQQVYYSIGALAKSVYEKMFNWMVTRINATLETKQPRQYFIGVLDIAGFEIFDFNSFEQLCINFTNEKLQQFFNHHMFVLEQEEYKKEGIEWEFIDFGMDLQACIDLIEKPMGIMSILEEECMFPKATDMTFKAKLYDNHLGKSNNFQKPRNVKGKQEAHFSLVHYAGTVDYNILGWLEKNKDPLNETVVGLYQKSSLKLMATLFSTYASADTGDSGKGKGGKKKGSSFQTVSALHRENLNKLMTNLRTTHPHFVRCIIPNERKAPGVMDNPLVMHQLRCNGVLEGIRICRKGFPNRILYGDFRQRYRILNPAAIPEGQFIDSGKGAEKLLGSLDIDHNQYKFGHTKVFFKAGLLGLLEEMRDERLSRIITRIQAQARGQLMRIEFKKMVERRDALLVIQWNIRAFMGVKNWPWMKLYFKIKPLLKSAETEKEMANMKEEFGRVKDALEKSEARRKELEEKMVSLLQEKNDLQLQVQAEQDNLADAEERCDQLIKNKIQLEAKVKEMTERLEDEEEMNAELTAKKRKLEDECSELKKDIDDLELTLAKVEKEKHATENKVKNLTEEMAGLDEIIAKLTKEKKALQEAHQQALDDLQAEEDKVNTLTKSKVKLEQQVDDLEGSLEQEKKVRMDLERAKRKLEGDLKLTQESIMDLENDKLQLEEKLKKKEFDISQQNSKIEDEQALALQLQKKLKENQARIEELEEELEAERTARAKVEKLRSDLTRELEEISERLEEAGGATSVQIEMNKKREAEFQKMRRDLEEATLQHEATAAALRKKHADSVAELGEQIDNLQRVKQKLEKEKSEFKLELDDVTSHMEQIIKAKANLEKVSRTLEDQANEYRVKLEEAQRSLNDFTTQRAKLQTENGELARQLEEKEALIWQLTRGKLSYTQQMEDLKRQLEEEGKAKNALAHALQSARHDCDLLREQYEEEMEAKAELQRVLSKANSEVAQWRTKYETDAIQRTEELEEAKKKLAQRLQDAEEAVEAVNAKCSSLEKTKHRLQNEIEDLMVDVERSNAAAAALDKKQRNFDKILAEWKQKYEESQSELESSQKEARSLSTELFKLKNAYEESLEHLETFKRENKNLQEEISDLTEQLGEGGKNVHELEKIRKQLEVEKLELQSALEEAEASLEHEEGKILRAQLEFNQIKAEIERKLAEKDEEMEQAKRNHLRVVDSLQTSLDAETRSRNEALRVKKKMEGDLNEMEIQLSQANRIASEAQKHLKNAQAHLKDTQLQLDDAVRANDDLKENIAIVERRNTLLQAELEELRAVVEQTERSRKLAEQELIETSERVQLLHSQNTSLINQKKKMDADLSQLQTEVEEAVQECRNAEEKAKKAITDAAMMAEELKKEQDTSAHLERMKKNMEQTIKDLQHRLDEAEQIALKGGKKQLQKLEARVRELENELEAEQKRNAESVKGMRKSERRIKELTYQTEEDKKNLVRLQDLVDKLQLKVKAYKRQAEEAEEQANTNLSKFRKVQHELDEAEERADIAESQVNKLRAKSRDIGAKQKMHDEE
Protocol: as §1, §2, §3

myosin light chain 1 = target: T2, myosin light chain 1 (Rattus norvegicus, UniProt P16409); format: biochemical; conditions: for number of independent observations of peptide: Cys 81, tryptic peptide ITYGQCGDVLR, 25 μM NCA or 500 μM AS; for Position of modified Cys: myosin light chain 1, Table 2
T2 construct: Rat myofibrillar preparations, as described in [7], were obtained from frozen ventricles (Pel Freez Biologicals); tissue Pel Freez Biologicals; host or cells: myofibrils from frozen rat ventricles
T2 sequence (P16409 whole entry): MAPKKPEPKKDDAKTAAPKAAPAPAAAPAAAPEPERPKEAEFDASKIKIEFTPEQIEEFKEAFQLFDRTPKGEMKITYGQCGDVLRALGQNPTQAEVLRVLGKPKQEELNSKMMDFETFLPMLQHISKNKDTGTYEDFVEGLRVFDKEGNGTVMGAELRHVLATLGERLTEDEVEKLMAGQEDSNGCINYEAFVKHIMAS
Protocol: as §1, §2, §3

troponin C (cardiac) = target: T3, troponin C (cardiac) (Rattus norvegicus, UniProt Q4PP99); format: biochemical; conditions: for number of independent observations of peptide: Cys 35, tryptic peptide AAFDIFVLGAEDGCISTK, 25 μM NCA or 500 μM AS; for Position of modified Cys: troponin C, Table 2
T3 construct: Rat myofibrillar preparations, as described in [7], were obtained from frozen ventricles (Pel Freez Biologicals); tissue Pel Freez Biologicals; host or cells: myofibrils from frozen rat ventricles
Protocol: as §1, §2, §3

myson binding protein C = target: T4, myson binding protein C (Rattus norvegicus, UniProt P56741); format: biochemical; conditions: for number of independent observations of peptide: Cys 475, 25 μM NCA or 500 μM AS; for Position of modified Cys: myosin binding protein C, Table 2
T4 construct: Rat myofibrillar preparations, as described in [7], were obtained from frozen ventricles (Pel Freez Biologicals); tissue Pel Freez Biologicals; host or cells: myofibrils from frozen rat ventricles
T4 sequence (P56741 whole entry): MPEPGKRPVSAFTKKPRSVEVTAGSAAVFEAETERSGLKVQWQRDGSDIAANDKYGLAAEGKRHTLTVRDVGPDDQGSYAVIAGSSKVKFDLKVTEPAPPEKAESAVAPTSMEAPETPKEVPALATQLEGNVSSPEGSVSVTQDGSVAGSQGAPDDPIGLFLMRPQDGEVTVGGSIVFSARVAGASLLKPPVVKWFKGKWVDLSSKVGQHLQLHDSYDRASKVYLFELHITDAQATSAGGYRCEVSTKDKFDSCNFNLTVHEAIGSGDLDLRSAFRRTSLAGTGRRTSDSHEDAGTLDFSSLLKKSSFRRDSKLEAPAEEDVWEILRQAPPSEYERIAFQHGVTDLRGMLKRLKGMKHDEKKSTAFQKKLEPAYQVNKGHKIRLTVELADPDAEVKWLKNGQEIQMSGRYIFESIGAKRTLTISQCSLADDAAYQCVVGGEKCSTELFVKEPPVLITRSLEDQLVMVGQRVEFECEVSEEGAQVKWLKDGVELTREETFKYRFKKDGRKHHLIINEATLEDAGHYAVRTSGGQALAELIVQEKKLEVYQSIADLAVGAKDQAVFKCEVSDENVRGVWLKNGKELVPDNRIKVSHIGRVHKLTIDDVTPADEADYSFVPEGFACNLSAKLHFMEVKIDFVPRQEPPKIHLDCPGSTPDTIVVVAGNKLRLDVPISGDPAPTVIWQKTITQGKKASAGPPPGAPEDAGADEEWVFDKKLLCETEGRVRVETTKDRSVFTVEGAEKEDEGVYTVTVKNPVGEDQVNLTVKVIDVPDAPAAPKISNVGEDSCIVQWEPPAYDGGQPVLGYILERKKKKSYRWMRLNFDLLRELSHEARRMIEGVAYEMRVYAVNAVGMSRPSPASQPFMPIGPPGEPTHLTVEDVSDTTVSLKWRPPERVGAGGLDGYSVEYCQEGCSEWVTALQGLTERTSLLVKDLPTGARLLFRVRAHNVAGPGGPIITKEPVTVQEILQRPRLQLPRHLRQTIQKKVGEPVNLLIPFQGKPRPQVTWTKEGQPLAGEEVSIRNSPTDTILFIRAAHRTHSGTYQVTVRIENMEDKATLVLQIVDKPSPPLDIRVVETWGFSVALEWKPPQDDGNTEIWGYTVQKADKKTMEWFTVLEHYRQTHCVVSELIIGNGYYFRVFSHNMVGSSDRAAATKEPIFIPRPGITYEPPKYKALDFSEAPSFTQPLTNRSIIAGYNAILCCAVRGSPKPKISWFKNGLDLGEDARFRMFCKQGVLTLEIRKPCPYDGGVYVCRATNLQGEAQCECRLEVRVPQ
Protocol: as §1, §2, §3

α actin = target: T5, α actin (Rattus norvegicus, UniProt P68035); format: biochemical; conditions: 25 μM NCA or 500 μM AS
T5 construct: Rat myofibrillar preparations, as described in [7], were obtained from frozen ventricles (Pel Freez Biologicals); tissue Pel Freez Biologicals; host or cells: myofibrils from frozen rat ventricles
Protocol: as §1, §2, §3

[1] = Cys 12, tryptic peptide DDEETTALVCDNGSLVK
[2] = Cys 219, tryptic peptide LCYVALDFENEMATAASSSLEK

Compound | number of independent observations of peptide (myosin heavy chain α/β; Cys 907, chymotryptic peptide ADAEERCDQL) | Position of modified Cys (myosin heavy chain α/β) | number of independent observations of peptide (α actinin) | Position of modified Cys (α actinin) | number of independent observations of peptide (myosin heavy chain α; chymotryptic peptide DIRTECFVPDDKEEY) | number of independent observations of peptide (myosin heavy chain α; tryptic peptide TECFVPDDKEEYVK) | Position of modified Cys (myosin heavy chain α) | number of independent observations of peptide (myosin light chain 1) | Position of modified Cys (myosin light chain 1) | number of independent observations of peptide (troponin C (cardiac)) | Position of modified Cys (troponin C (cardiac)) | number of independent observations of peptide (myson binding protein C; chymotryptic peptide ECEVSEEGAQVKW) | Position of modified Cys (myson binding protein C) | number of independent observations of peptide (α actin; Cys 12, chymotryptic peptide VCDNGSLVKAGF) | number of independent observations of peptide (α actin; [1]) | number of independent observations of peptide (α actin; [2]) | number of independent observations of peptide (myosin heavy chain α/β; Cys 1750, tryptic peptide MDADLSQLQTEVEEAVQECR) | number of independent observations of peptide (myson binding protein C; tryptic peptide VEFECEVSEEGAQVK) | number of independent observations of peptide (α actin; Cys 257, chymotryptic peptide RCPETLFQPSF)
[Na+].[Na+].[O-][N+]([O-])=NO [AS, Angeli's Salt] | 2 | 907(α/β) | 3 | 889 | 3 | 3 | 37(α) | 2 | 81 | 2 | 35 | 2 | 475 | 2 | 3 | 1 |  |  | 
CC(=O)OC1(N=O)CCCCC1 [NCA, 1-nitrosocyclohexylacetate] |  | 1750(α/β) | 2 | 889 |  | 3 | 37(α) | 2 | 81 | 2 | 35 |  | 475 |  | 3 | 1 | 2 | 1 | 1
